Source: patent US10376520B2, “Methods for the treatment of cardiovascular disorders” (Galapagos NV, priority 2015, dated 2019)

Tests used:
Format in all cases: in vivo, human
[1] = tested on: RA patients; test: Plasma ApoC-III concentration (ELISA), Study 4; settings: for ApoC-III level, 4 weeks CFB: 4 weeks change from baseline
Experimental: (§1) Randomized double-blind, placebo-controlled add on study in subjects with active RA who have an inadequate response to MTX monotherapy, in combination with methotrexate, administered for 4 weeks in the treatment of subjects with active rheumatoid arthritis who have an inadequate response to methotrexate alone.
(§2) Compound 1 (dosed as a [Compound 1:HCl:3H2O]) capsules administered orally in 30 mg, 75 mg, 150 mg, or 300 mg doses per day for 4 weeks.
Plasma ApoC-II and ApoC-III concentrations are determined using commercial available ELISA kits from Abnova (9th Floor, No. 108, Jhouzih St., Neihu District. Taipei City, 114, Taiwan) according to manufacturer's instruction. apoC2: catalogue number KA0464, lot number used: 08871403. apoC3: catalogue number KA0465, lot number used: 02961525.

[2] = tested on: RA patients; test: [HDL] determination, Study 4 (RA patients, 4 weeks, add-on to MTX)
Description: (§3) Randomized, double-blind, placebo-controlled, multicenter, phase II study of Compound 1 (dosed as a [Compound 1:HCl:3H2O]) to compare four dose regimens versus placebo, in combination with methotrexate, administered for 4 weeks in the treatment of subjects with active rheumatoid arthritis who have an inadequate response to methotrexate alone.
as §1
(§4) 90 subjects randomized to one of 4 dose regimens of Compound 1 (dosed as a [Compound 1:HCl:3H2O]) or placebo, on top of their stable dose of MTX. Thus, each of the 4 different doses of Compound 1 (dosed as a [Compound 1:HCl:3H2O]) and placebo groups has 18 subjects.
as §2
This assay relies on a homogeneous enzymatic colorimetric test. In the presence of magnesium ions, dextran sulfate selectively forms water-soluble complexes with LDL, VLDL and chylomicrons which are resistant to PEG-modified enzymes.
The cholesterol concentration of [HDL]-cholesterol is determined enzymatically by cholesterol esterase and cholesterol oxidase coupled with PEG to the amino groups (approx. 40%).
In the presence of peroxidase, the hydrogen peroxide generated reacts with 4-amino-antipyrine and Sodium N-(2-hydroxy-3-sulfopropyl)-3,5-dimethoxyaniline (HSDA) to form a purple-blue dye. The color intensity of this dye is directly proportional to the cholesterol concentration and is measured photometrically.
Human serum and plasma samples [HDL] determination was done on a Roche/Hitachi Cobas c 701/702 system which automatically calculate the analyte concentration of each sample. Samples containing precipitates are centrifuged before performing the assay.

[3] = tested on: RA patients; test: ApoA-I level (Selectra autoanalyzer), Study 4; settings: for ApoA-I level, 4 weeks CFB: 4 weeks change from baseline
Experimental: as §1, §2
ApoAI, and ApoB were measured on the Selectra autoanalyzer (Sopachem BV, 44-RI Straat 33, 4051 AP Ochten, The Netherlands). All assays were commercially available from DiaSys Diagnostic Systems GmbH, Alte Strasse 9, 65558 Holzheim, Germany.

[4] = tested on: RA patients; test: LDL determination, Study 4 (RA patients, 4 weeks, add-on to MTX); settings: for [LDL] levels: Study 4
Description: as §3, §1, §4, §2
The determination of [LDL]-cholesterol is made using an automated method taking advantage of the selective micellary solubilization of [LDL]-cholesterol by a nonionic detergent and the interaction of a sugar compound and lipoproteins (VLDL and chylomicrons).
When a detergent is included in the enzymatic method for cholesterol determination (cholesterol esterase, cholesterol oxidase coupling reaction), the relative reactivities of cholesterol in the lipoprotein fractions increase in this order: [HDL]<chylomicrons <VLDL <[LDL]. In the presence of Mg^2+, a sugar compound markedly reduces the enzymatic reaction of the cholesterol measurement in VLDL and chylomicrons. The combination of a sugar compound with detergent enables the selective determination of [LDL]-cholesterol in serum. (Friedewald et al., 1972; Rifai et al., 1992)
Homogeneous enzymatic colorimetric assay.
In the presence of peroxidase, the hydrogen peroxide generated reacts with 4-aminoantipyrine and Sodium N-(2-hydroxy-3-sulfopropyl)-3,5-dimethoxyaniline (HSDA) to form a purple-blue dye.
The color intensity of this dye is directly proportional to the cholesterol concentration and is measured photometrically.
Human serum and plasma samples [LDL] determination was done on a Roche/Hitachi Cobas c 701/702 system which automatically calculate the analyte concentration of each sample. Samples containing precipitates are centrifuged before performing the assay.

## O=C(Nc1nc2cccc(-c3ccc(CN4CCS(=O)(=O)CC4)cc3)n2n1)C1CC1 [Compound 1, cyclopropanecarboxylic acid {5-[4-(1,1-dioxo-thiomorpholin-4-ylmethyl)-phenyl]-[1,2,4]triazolo[1,5-a]pyridin-2yl}-amide]
[1]; 30 mg q.d.
  ApoC-III level, 4 weeks CFB: 4.6%
  ApoC-III level, week 4: 78.6 ng/mL
[1]; 75 mg q.d.
  ApoC-III level, 4 weeks CFB: 17.6%
  ApoC-III level, week 4: 79.6 ng/mL
[1]; 150 mg q.d.
  ApoC-III level, 4 weeks CFB: 9.6%
  ApoC-III level, week 4: 82.7 ng/mL
[1]; 300 mg q.d.
  ApoC-III level, 4 weeks CFB: 27.9%
  ApoC-III level, week 4: 88.2 ng/mL
[2]; 30 mg q.d., Baseline
  [HDL] levels: 1.40 mmol/L
[2]; 30 mg q.d., week 1
  [HDL] levels: 1.44 mmol/L
[2]; 30 mg q.d., week 2
  [HDL] levels: 1.43 mmol/L
[2]; 30 mg q.d., week 3
  [HDL] levels: 1.38 mmol/L
[2]; 30 mg q.d., week 4
  [HDL] levels: 1.43 mmol/L
[2]; 30 mg qd
  [HDL] % Mean % variation vs baseline after 4 weeks: 4%
[2]; 75 mg q.d., Baseline
  [HDL] levels: 1.46 mmol/L
[2]; 75 mg q.d., week 1
  [HDL] levels: 1.46 mmol/L
[2]; 75 mg q.d., week 2
  [HDL] levels: 1.50 mmol/L
[2]; 75 mg q.d., week 3
  [HDL] levels: 1.56 mmol/L
[2]; 75 mg q.d., week 4
  [HDL] levels: 1.57 mmol/L
[2]; 75 mg qd
  [HDL] % Mean % variation vs baseline after 4 weeks: 11%
[2]; 150 mg q.d., Baseline
  [HDL] levels: 1.46 mmol/L
[2]; 150 mg q.d., week 1
  [HDL] levels: 1.45 mmol/L
[2]; 150 mg q.d., week 2
  [HDL] levels: 1.47 mmol/L
[2]; 150 mg q.d., week 3
  [HDL] levels: 1.55 mmol/L
[2]; 150 mg q.d., week 4
  [HDL] levels: 1.53 mmol/L
[2]; 150 mg qd
  [HDL] % Mean % variation vs baseline after 4 weeks: 4%
[2]; 300 mg q.d., Baseline
  [HDL] levels: 1.36 mmol/L
[2]; 300 mg q.d., week 1
  [HDL] levels: 1.55 mmol/L
[2]; 300 mg q.d., week 2
  [HDL] levels: 1.73 mmol/L
[2]; 300 mg q.d., week 3
  [HDL] levels: 1.75 mmol/L
[2]; 300 mg q.d., week 4
  [HDL] levels: 1.84 mmol/L
[2]; 300 mg qd
  [HDL] % Mean % variation vs baseline after 4 weeks: 38%
[3]; 30 mg q.d.
  ApoA-I level, 4 weeks CFB: 5.2%
  ApoA-I level, Baseline: 148 mg/dL
  ApoA-I level, week 4: 155 mg/dL
[3]; 75 mg q.d.
  ApoA-I level, 4 weeks CFB: 9.8%
  ApoA-I level, Baseline: 142 mg/dL
  ApoA-I level, week 4: 156 mg/dL
[3]; 150 mg q.d.
  ApoA-I level, 4 weeks CFB: 5.5%
  ApoA-I level, Baseline: 140 mg/dL
  ApoA-I level, week 4: 147 mg/dL
[3]; 300 mg q.d.
  ApoA-I level, 4 weeks CFB: 27.9%
  ApoA-I level, Baseline: 143 mg/dL
  ApoA-I level, week 4: 179 mg/dL
[4]; 30 mg qd
  [LDL] % Mean % variation vs baseline after 4 weeks: 7%
[4]; 75 mg qd
  [LDL] % Mean % variation vs baseline after 4 weeks: 7%
[4]; 150 mg qd
  [LDL] % Mean % variation vs baseline after 4 weeks: 1%
[4]; 300 mg qd
  [LDL] % Mean % variation vs baseline after 4 weeks: 13%
[4]; 30 mg q.d., baseline
  [LDL] levels: 3.34 mmol/L
[4]; 30 mg q.d., week 1
  [LDL] levels: 3.40 mmol/L
[4]; 30 mg q.d., week 2
  [LDL] levels: 3.35 mmol/L
[4]; 30 mg q.d., week 3
  [LDL] levels: 3.41 mmol/L
[4]; 30 mg q.d., week 4
  [LDL] levels: 3.60 mmol/L
[4]; 75 mg q.d., baseline
  [LDL] levels: 3.22 mmol/L
[4]; 75 mg q.d., week 1
  [LDL] levels: 3.25 mmol/L
[4]; 75 mg q.d., week 2
  [LDL] levels: 3.17 mmol/L
[4]; 75 mg q.d., week 3
  [LDL] levels: 3.14 mmol/L
[4]; 75 mg q.d., week 4
  [LDL] levels: 3.36 mmol/L
[4]; 150 mg q.d., baseline
  [LDL] levels: 3.01 mmol/L
[4]; 150 mg q.d., week 1
  [LDL] levels: 3.18 mmol/L
[4]; 150 mg q.d., week 2
  [LDL] levels: 2.95 mmol/L
[4]; 150 mg q.d., week 3
  [LDL] levels: 2.96 mmol/L
[4]; 150 mg q.d., week 4
  [LDL] levels: 3.06 mmol/L
[4]; 300 mg q.d., baseline
  [LDL] levels: 2.82 mmol/L
[4]; 300 mg q.d., week 1
  [LDL] levels: 3.19 mmol/L
[4]; 300 mg q.d., week 2
  [LDL] levels: 3.11 mmol/L
[4]; 300 mg q.d., week 3
  [LDL] levels: 3.18 mmol/L
[4]; 300 mg q.d., week 4
  [LDL] levels: 3.18 mmol/L
